Laboratory results as given in PMC5909127, “Optimization of a “bump-and-hole” approach to allele-selective BET bromodomain inhibition” (Chemical Science, 2018).

Legend:
BRDT BD2 WT = BRDT BD2 WT (Homo sapiens, UniProt Q58F21); assay: competitive AlphaLISA; type: binding; conditions: read-out: AlphaLISA pIC50 Value BRDT BD2 WT (converted)
BRDT BD2 L/V = BRDT BD2 L/V (Homo sapiens, UniProt Q58F21, L306V); assay: competitive AlphaLISA; type: binding; conditions: read-out: AlphaLISA pIC50 Value BRDT BD2 L/V (converted)
BRD3 BD1 L/V [1] = biological target: T1, BRD3 BD1 L/V (Homo sapiens, UniProt Q15059, L70V); assay: competitive AlphaLISA; type: binding; conditions: read-out: AlphaLISA pIC50 Value BRD3 BD1 L/V (converted)
BRD2 BD1 WT = BRD2 BD1 WT (Homo sapiens, UniProt P25440); assay: ITC; type: binding
[2] = system: L/V BET bromodomains (BD1 and BD2 of BRD2, BRD3 and BRD4); assay: competitive AlphaLISA (Bio-JQ1 displacement); type: binding, human; conditions: L/V minus WT
BRD3 BD2 WT [3] = biological target: T2, BRD3 BD2 WT (Homo sapiens, UniProt Q15059); assay: competitive AlphaLISA; type: binding; conditions: read-out: AlphaLISA pIC50 Value BRD3 BD2 WT (converted)
BRD3 BD2 L/V [4] = biological target: T3, BRD3 BD2 L/V (Homo sapiens, UniProt Q15059, L345V); assay: competitive AlphaLISA; type: binding; conditions: read-out: AlphaLISA pIC50 Value BRD3 BD2 L/V (converted)
BRD2 BD2 L/V = BRD2 BD2 L/V (Homo sapiens, UniProt P25440, L383V); assay: ITC; type: binding; conditions: ITC
BRD2 BD2 WT [5] = biological target: T4, BRD2 BD2 WT (Homo sapiens, UniProt P25440); assay: ITC; type: binding
[6] = system: L/V somatic BET bromodomains; assay: ITC; conditions: L/V minus WT
BRD3 BD1 WT [7] = biological target: T5, BRD3 BD1 WT (Homo sapiens, UniProt Q15059); assay: competitive AlphaLISA; type: binding; conditions: read-out: AlphaLISA pIC50 Value BRD3 BD1 WT (converted)
BRD3 BD1 L/V [8] = biological target: T1, BRD3 BD1 L/V; assay: ITC; type: binding; conditions: ITC
in vitro [9] = conditions: BALB/c, mouse, plasma, pH 7.4
BRD2 BD1 L/V [10] = biological target: T6, BRD2 BD1 L/V (Homo sapiens, UniProt P25440, L110V); assay: competitive AlphaLISA; type: binding; conditions: read-out: AlphaLISA pIC50 Value BRD2 BD1 L/V (converted)
in vitro [11] = conditions: PAMPA, pH 7.4
BRD3 BD1 WT [12] = biological target: T5, BRD3 BD1 WT; assay: ITC; type: binding
BRD2 BD2 WT [13] = biological target: T4, BRD2 BD2 WT; assay: competitive AlphaLISA; type: binding; conditions: read-out: AlphaLISA pIC50 Value BRD2 BD2 WT (converted)
BRD3 BD2 WT [14] = biological target: T2, BRD3 BD2 WT; assay: ITC; type: binding
BRD2 BD1 L/V [15] = biological target: T6, BRD2 BD1 L/V; assay: ITC; type: binding; conditions: ITC
[16] = biological target: WT BET bromodomains (BD1 and BD2 of BRD2, BRD3 and BRD4); assay: competitive AlphaLISA (Bio-JQ1 displacement); type: binding, human; conditions: mean and SD of all somatic bromodomains; active enantiomer concentration
BRD3 BD2 L/V [17] = biological target: T3, BRD3 BD2 L/V; assay: ITC; type: binding; conditions: ITC
[18] = biological target: WT somatic BET bromodomains; assay: ITC; conditions: mean and SD of all somatic bromodomains
BRD4 BD1 WT [19] = biological target: T7, BRD4 BD1 WT (Homo sapiens, UniProt O60885); assay: competitive AlphaLISA; type: binding; conditions: pIC50 BRD4 BD1 WT, separated enantiomers test; total compound concentration
[20] = system: GFP-BRD4 L/V constructs with NF-κB-RE/luc2P reporter in HEK293T cells; assay: NF-κB luciferase assay; type: cell-based, human; conditions: 1 µM, inhibiting either individual BD of BRD4
Procedure: To provide additional functional insights into the individual roles of BD1 vs. BD2 beyond chromatin binding, a luciferase assay was developed to monitor the expression of NF-κB target genes, inspired by work of Zou et al.[45] […] This luciferase induction was maintained with L/V mutations (but not L/A), consistent again with more WT-like functionality of L/V compared to L/A (Fig. 9A).
12 – NF-κB Luciferase Assay
Luciferase experiments were performed in human HEK293T cells seeded in a 24-well plate at 100 000 cells in […]
pBABE NF-κB-RE/luc2P reporter plasmid. Cells were transfected using Lipofectamine™ LTX (Invitrogen) with PLUS™ reagent, with each well receiving 0.5 µg of each plasmid, 2.5 µl LTX and 0.5 µl PLUS reagent. The next day cells were treated with compounds, giving a final concentration of 1 µM compound and 0.01% DMSO. 6 hours later cells were washed with PBS, lysed with passive lysis buffer (Promega) and stored at -20°C.
Luciferase activity was measured suing the Promega luciferase assay. In a black 384-well plate 3µl of clarified lysate was mixed with 15µl luciferase assay reagent and after 15 minutes luminescence was measured in a Pherastar FS. […]
NMR spectra were recorded on a Bruker 500 Ultrashield or a Bruker Ascend 400. […] High Resolution Mass Spectra (HRMS) were recorded on a Bruker micrOTOF. […]

BRD4 BD1 WT [21] = biological target: T7, BRD4 BD1 WT; assay: ITC; type: binding
BRD4 BD1 L/V [22] = biological target: T8, BRD4 BD1 L/V (Homo sapiens, UniProt O60885, L94V); assay: competitive AlphaLISA; type: binding; conditions: total compound concentration
BRD4 BD1 L/V [23] = biological target: T8, BRD4 BD1 L/V; assay: ITC; type: binding; conditions: total compound concentration

T2 sequence (Q15059 306-416): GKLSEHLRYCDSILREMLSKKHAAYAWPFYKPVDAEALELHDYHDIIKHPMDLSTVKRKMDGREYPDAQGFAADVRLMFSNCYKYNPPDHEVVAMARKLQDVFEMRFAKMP
BRD2 BD1 WT, sequence (P25440 71-176): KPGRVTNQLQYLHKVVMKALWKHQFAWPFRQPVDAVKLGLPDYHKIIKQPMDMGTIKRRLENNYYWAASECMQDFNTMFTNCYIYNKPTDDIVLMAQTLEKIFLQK
T4 sequence (P25440 344-455): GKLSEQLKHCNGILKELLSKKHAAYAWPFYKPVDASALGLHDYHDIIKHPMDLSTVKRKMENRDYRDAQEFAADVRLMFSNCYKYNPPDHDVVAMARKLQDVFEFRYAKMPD
T3 sequence (Q15059 306-416 L345V limits assumed): as the sequence (Q15059 306-416) above, with L40V counted along it
T5 sequence (Q15059 24-144): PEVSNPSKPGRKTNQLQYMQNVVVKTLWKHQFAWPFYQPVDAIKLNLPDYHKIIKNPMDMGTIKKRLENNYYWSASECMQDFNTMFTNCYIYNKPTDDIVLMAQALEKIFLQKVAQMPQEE
T6 sequence (P25440 71-176 L110V limits assumed): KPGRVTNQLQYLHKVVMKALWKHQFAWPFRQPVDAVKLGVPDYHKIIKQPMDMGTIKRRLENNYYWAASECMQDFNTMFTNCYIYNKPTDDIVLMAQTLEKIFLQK
T1 sequence (Q15059 24-144 L70V limits assumed): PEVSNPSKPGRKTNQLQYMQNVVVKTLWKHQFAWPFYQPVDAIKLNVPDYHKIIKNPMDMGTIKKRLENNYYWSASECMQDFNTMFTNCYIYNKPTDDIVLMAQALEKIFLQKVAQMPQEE
BRD2 BD2 L/V, sequence (P25440 344-455 L383V): as the sequence (P25440 344-455) above, with L40V counted along it

## CCNC(=O)[C@H](C)[C@@H]1N=C(c2ccc(Cl)cc2)c2cc(OC)ccc2-n2c(C)nnc21 (relative stereo) [Compound 16]
BRDT BD2 WT
  IC50: 7940 nM
BRDT BD2 L/V
  IC50: 398 nM
BRD3 BD1 L/V [1]
  IC50: 100 nM
BRD2 BD1 WT; ITC
  ΔH BRD2 BD1 WT: -4.5 kcal/mol
BRD2 BD1 WT; ITC stoichiometry
  N BRD2 BD1 WT: 0.94
BRD2 BD1 WT; ITC, 30°C, read-out: Kd BRD2 BD1 WT
  Kd: 2200 nM
[2]
  AlphaLISA pIC50 ± SD Δ: 1.4 ± 0.2
BRD3 BD2 WT [3]
  IC50: 3980 nM
BRD3 BD2 L/V [4]
  IC50: 79.4 nM
BRD2 BD2 L/V
  ΔH BRD2 BD2 L/V: -9.9 kcal/mol
BRD2 BD2 L/V; 30°C, read-out: Kd BRD2 BD2 L/V
  Kd: 190 nM
BRD2 BD2 WT [5]; ITC
  ΔH BRD2 BD2 WT: -3.9 kcal/mol
BRD2 BD2 WT [5]; ITC stoichiometry
  N BRD2 BD2 WT: 0.65
BRD2 BD2 WT [5]; ITC, 30°C, read-out: Kd BRD2 BD2 WT
  Kd: 2400 nM
[6]
  ITC pKd ± SD Δ: 1.3 ± 0.3
BRD3 BD1 WT [7]
  IC50: 2000 nM
BRD3 BD1 L/V [8]
  ΔH BRD3 BD1 L/V: -19.0 kcal/mol
BRD3 BD1 L/V [8]; 30°C, read-out: Kd BRD3 BD1 L/V
  Kd: 60 nM
In vitro [9]
  half-life at 50 µM: > 3 h
BRD2 BD1 L/V [10]
  IC50: 398 nM
In vitro [11]
  Papp: 2.6 ×10⁻⁶ cm/s
BRD3 BD1 WT [12]; ITC
  ΔH BRD3 BD1 WT: -8.8 kcal/mol
BRD3 BD1 WT [12]; ITC stoichiometry
  N BRD3 BD1 WT: 0.81
BRD3 BD1 WT [12]; ITC, 30°C, read-out: Kd BRD3 BD1 WT
  Kd: 1600 nM
BRD2 BD2 WT [13]
  IC50: 5010 nM
BRD3 BD2 WT [14]; ITC
  ΔH BRD3 BD2 WT: -6.0 kcal/mol
BRD3 BD2 WT [14]; ITC stoichiometry
  N BRD3 BD2 WT: 0.88
BRD3 BD2 WT [14]; ITC, 30°C, read-out: Kd BRD3 BD2 WT
  Kd: 1500 nM
BRD2 BD1 L/V [15]
  ΔH BRD2 BD1 L/V: -16.3 kcal/mol
BRD2 BD1 L/V [15]; 30°C, read-out: Kd BRD2 BD1 L/V
  Kd: 120 nM
[16]
  AlphaLISA pIC50 ± SD WT: 5.3 ± 0.2
BRD3 BD2 L/V [17]
  ΔH BRD3 BD2 L/V: -12.9 kcal/mol
BRD3 BD2 L/V [17]; 30°C, read-out: Kd BRD3 BD2 L/V
  Kd: 130 nM
[18]
  ITC pKd ± SD WT: 5.6 ± 0.3

## CC[C@@H](C(=O)OC)[C@@H]1N=C(c2ccc(Cl)cc2)c2ccc(OC)cc2-n2c(C)nnc21 (relative stereo) [(2R,3S)-8]
BRD4 BD1 WT [19]
  IC50: 79400 nM
[20]
  effect on NF-κB signalling: strongly impacted on NF-κB signalling
BRD4 BD1 WT [21]
  Kd: > 60000 nM
BRD4 BD1 L/V [22]; L/V minus WT
  ΔpIC50 BRD4 BD1: 1.8
BRD4 BD1 L/V [22]; pIC50 BRD4 BD1 L/V, separated enantiomers test
  IC50: 1260 nM
BRD4 BD1 L/V [23]; ITC stoichiometry
  N BRD4 BD1 L/V: 0.85 ±0.01
BRD4 BD1 L/V [23]; ITC
  ΔH BRD4 BD1 L/V: -6.5 ± 0.1 kcal/mol
BRD4 BD1 L/V [23]; Kd BRD4 BD1 L/V, ITC of separated enantiomers and racemates
  Kd: 440 ± 50 nM
